Test results taken from patent US20040132803A1, “Agent for the treatment of overactive bladder” (priority 2003, published 2004).

Key:
[1] = test system: rats with hypertrophic bladder; assay: Inhibition of detrusor instability, cystometry in rats with partial urethra obstruction (hypertrophic bladder); format: in vivo, rat; settings: for micturition contraction, relative to before administration = 100 / pre-micturition contraction, relative to before administration = 100: rats with partial urethra obstruction
Text: Partial urethra obstruction was induced in rats.

DRG cells = assay: Current-clamp membrane potential in DRG cells; format: cell-based, rat; settings: for Membrane potential (mV): current clamp
Description: Experiments were performed on adult female Sprague Dawley rats. A population of unidentified DRG cells and a population of DRG neurons that innervate the urinary bladder were labeled by retrograde axonal transport of the fluorescent dye, Fast Blue (4% w/v) (Polyloy, Gross Umstadt, Germany), injected into the wall of the bladder in halothane-anesthetized animals 7 days before the dissociation. The dye was injected with a 28 gauge needle at three to six sites on the dorsal surface of the organ (5-6 μL per site, total volume of 20-30 μL). Each injection site was washed with saline to minimize contamination of adjacent organs with the dye.
Freshly dissociated neurons from DRG were prepared from halothane-anesthetized animals. L6 and S1 DRG were dissected from animals and then dissociated in a shaking bath for 25 minutes at 35° C. with 5 mL DMEM (Sigma) containing 0.3 mg/mL trypsin (Type 3, Sigma), 1 mg/mL collagenase (Type 1, Sigma), and 0.1 mg/mL deoxyribonuclease (Type 4, Sigma). Trypsin inhibitor (Type 2a, Sigma) was then added thereto to neutralize the activity of trypsin. Individual DRG cell bodies were isolated by trituration and then plated on a poly-L-lysine-coated 35 mm Petri dishes.
Dye-labeled primary afferent neurons that innervate the urinary bladder were identified using an inverted phase-contrast microscope (Nikon, Tokyo, Japan) with fluorescent attachments (UV-1A filter; excitation wavelength, 365 nm). Gigaohm-seal whole-cell recordings were performed within 6-8 hours after cell dissociation at room temperature (20-22° C.) on each labeled neuron in a culture dish that usually contained three to seven labeled cells among a few hundred unlabeled neurons. The internal solution contained (in mmol/L): KCl 140, CaCl2 1, MgCl2 2, EGTA 11, HEPES 10, Mg-ATP 2, and Tris-GTP 0.4 adjusted to pH 7.4 with KOH. Patch electrodes had resistances of 1-4 M Ω when filled with the internal solution. Neurons were superfused at a flow rate of 1.5 mL/minutes with an external solution containing (in mmol/L): NaCl 150, KCl 5, CaCl2 2.5, MgCl2 1, HEPES 10, and D-glucose 10, adjusted to pH 7.4 with NaOH. All recordings were made with an Axopatch-1D patch-clamp amplifier (Axon Instruments, Foster City, Calif.), and data were acquired and analyzed by PCLAMP software (Axon Instruments).
In current-clamp recordings, membrane potential of DRG cells were measured before and after compound applications. The membrane potentials were normalized to control (before addition of the compound).

dd male mice = settings: mouse, in vivo, po, 7 days
Description: The test compound was administered orally or intraperitoneally to 3 animals per group of dd male mice (body weight, 20±1 g). Minimum lethal dose (MLD) value was obtained by observing mortality on the 7th day after the administration.

[2] = 0.001 mg/kg p.o., after 3 hours
[3] = 0.001 mg/kg p.o., after 5 hours

C[C@](O)(C(=O)Nc1cccc2c1C(=O)c1sccc1CS2(=O)=O)C(F)(F)F [Compound 1, (S)-(+)-N-(5,5-dioxido-10-oxo-4,10-dihydrothieno[3,2-c][l]benzothiepin-9-yl)-3,3,3-trifluoro-2-hydroxy-2-methylpropanamide]
micturition contraction, relative to before administration = 100 ([1]; 0.001 mg/kg p.o., after 1 hour): 99.3 ± 2.3% | pre-micturition contraction, relative to before administration = 100 ([1]; 0.001 mg/kg p.o., after 1 hour): 105.9 ± 7.8% | micturition contraction, relative to before administration = 100 [1, 2]: 101.5 ± 3.3% | pre-micturition contraction, relative to before administration = 100 [1, 2]: 100.3 ± 10.0% | micturition contraction, relative to before administration = 100 [1, 3]: 98.7 ± 5.2% | pre-micturition contraction, relative to before administration = 100 [1, 3]: 104.2 ± 10.2% | micturition contraction, relative to before administration = 100 ([1]; 0.01 mg/kg p.o., after 1 hour): 99.6 ± 1.2% | pre-micturition contraction, relative to before administration = 100 ([1]; 0.01 mg/kg p.o., after 1 hour): 59.5 ± 4.1 % | micturition contraction, relative to before administration = 100 ([1]; 0.01 mg/kg p.o., after 3 hours): 92.6 ± 3.2% | pre-micturition contraction, relative to before administration = 100 ([1]; 0.01 mg/kg p.o., after 3 hours): 69.5 ± 4.4 % | micturition contraction, relative to before administration = 100 ([1]; 0.01 mg/kg p.o., after 5 hours): 90.1 ± 4.3% | pre-micturition contraction, relative to before administration = 100 ([1]; 0.01 mg/kg p.o., after 5 hours): 67.8 ± 5.5 % | micturition contraction, relative to before administration = 100 ([1]; 0.1 mg/kg p.o., after 1 hour): 106.2 ± 9.2% | pre-micturition contraction, relative to before administration = 100 ([1]; 0.1 mg/kg p.o., after 1 hour): 55.8 ± 8.2 % | micturition contraction, relative to before administration = 100 ([1]; 0.1 mg/kg p.o., after 3 hours): 105.2 ± 9.6% | pre-micturition contraction, relative to before administration = 100 ([1]; 0.1 mg/kg p.o., after 3 hours): 66.2 ± 4.7 % | micturition contraction, relative to before administration = 100 ([1]; 0.1 mg/kg p.o., after 5 hours): 100.1 ± 8.6% | pre-micturition contraction, relative to before administration = 100 ([1]; 0.1 mg/kg p.o., after 5 hours): 69.2 ± 7.4 % | effect on micturition contraction ([1]; rats with hypertrophic bladder): had no influence | effect on pre-micturition contraction (detrusor instability) ([1]; rats with hypertrophic bladder): inhibited | effect on membrane potential (DRG cells): hyperpolarization | Membrane potential (mV) (DRG cells; 1.0 × 10^−6 mol/L): −53.67 ± 0.74 mV | Membrane potential (mV) (DRG cells; 1.0 × 10^−7 mol/L): −57.17 ± 0.53 mV | Membrane potential (mV) (DRG cells; 1.0 × 10^−8 mol/L): −49.80 ± 0.65 mV | Membrane potential (mV) (DRG cells; 1.0 × 10^−9 mol/L): −48.10 ± 0.48 mV | Membrane potential (mV) (DRG cells; 5.0 × 10^−4 mol/L): −42.67 ± 1.46 mV | Membrane potential (mV) (DRG cells; 5.0 × 10^−5 mol/L): −48.50 ± 1.28 mV | Membrane potential (mV) (DRG cells; 5.0 × 10^−6 mol/L): −50.50 ± 0.88 mV | Minimum lethal dose (MLD) (dd male mice): > 1,000 mg/kg
